Assay results as given in patent US20100137315A1, “Sphingosine Kinase Inhibitors and Methods of Their Use” (APOGEE BIOTECHNOLOGY CORPORATION, priority 2005, published 2010).

Target: T1, recombinant human SK (Homo sapiens, UniProt Q9NYA1)
T1 construct: glutathione-S-transferase (GST) (N); made in house; host or cells: bacteria (pGEX vector)
Assay: Inhibition of recombinant human SK, LC/MS/MS assay
Format: biochemical
Details: 6 μg/ml compound
Experimental: An assay for identifying inhibitors of recombinant human SK has been established (French et al., 2003, Cancer Res 63: 5962). cDNA for human SK was subcloned into a pGEX bacterial expression vector, which results in expression of the enzyme as a fusion protein with glutathione-S-transferase, and the fusion protein is then purified on a column of immobilized glutathione. SK activity is measured by incubation of the recombinant SK with [^3H]sphingosine and 1 mM ATP under defined conditions, followed by extraction of the assay mixture with chloroform:methanol under basic conditions. […] Radioactivity in aliquots of the aqueous phase is then quantified as a measure of [^3H]S1P formation. There is a low background level of partitioning of [^3H]sphingosine into the aqueous phase, and addition of the recombinant SK greatly increases the formation of [^3H]S1P.
In an alternate assay procedure, the recombinant human SK was incubated with unlabeled sphingosine and ATP as described above. After 30 minutes, the reactions were terminated by the addition of acetonitrile to directly extract the newly synthesized S1P. The amount of S1P in the samples is then quantified as follows. C17 base D-erythro-sphingosine and C17 S1P are used as internal standards for sphingosine and S1P, respectively. These seventeen-carbon fatty acid-linked sphingolipids are not naturally produced, making these analogs excellent standards. The lipids are then fractionation by High-Performance Liquid Chromatography using a C8-reverse phase column eluted with 1 mM methanolic ammonium formate/2 mM aqueous ammonium formate. A Finnigan LCQ Classic LC-MS/MS is used in the multiple reaction monitoring positive ionization mode to acquire ions at m/z of 300 (precursor ion)→282 (product ion) for sphingosine and 380→264 for S1P. Calibration curves are generated by plotting the peak area ratios of the synthetic standards for each sphingolipid, and used to determine the normalized amounts of sphingosine and S1P in the samples.
Each Compound of this invention was tested for its ability to inhibit recombinant SK using the LC/MS/MS assay described above. Typically, the Compounds were individually dissolved in dimethylsulfoxide and tested at a final concentration of 6 micrograms/ml.

T1 sequence (Q9NYA1 whole entry): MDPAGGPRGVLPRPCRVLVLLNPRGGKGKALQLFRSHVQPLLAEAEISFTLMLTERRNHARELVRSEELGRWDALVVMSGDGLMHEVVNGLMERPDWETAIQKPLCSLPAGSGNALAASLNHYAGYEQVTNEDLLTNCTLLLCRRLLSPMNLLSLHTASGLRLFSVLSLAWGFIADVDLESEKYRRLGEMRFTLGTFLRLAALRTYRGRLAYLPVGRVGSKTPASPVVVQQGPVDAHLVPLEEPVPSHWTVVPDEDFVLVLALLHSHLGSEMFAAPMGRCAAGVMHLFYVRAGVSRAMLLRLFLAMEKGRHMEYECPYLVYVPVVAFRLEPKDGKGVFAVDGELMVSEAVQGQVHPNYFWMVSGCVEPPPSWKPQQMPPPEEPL

Row | Compound | inhibition at 6 µg/mL [%]
1 | O=C(NCc1ccc(Cl)c(C(F)(F)F)c1)c1nc(-c2ccc(Cl)cc2)cs1 [Compound 37, 4-(4-Chloro-phenyl)-thiazole-2-carboxylic acid 4-chloro-3-trifluoromethyl-benzylamide] | 23
2 | Fc1cc(F)cc(COCNc2nc(-c3ccc(Cl)cc3)cs2)c1 [Compound 79, [4-(4-Chloro-phenyl)-thiazol-2-yl]-(3,5-difluoro-benzyloxymethyl)-amine] | 53
3 | CCCC(=O)Oc1ccc(C(=O)Nc2nc(-c3ccc(Cl)cc3)cs2)cc1OC [Compound 24, Butyric acid 4-[4-(4-chloro-phenyl)-thiazol-2-ylcarbamoyl]-2-methoxy-phenyl ester] | 0
4 | O=C(NCc1cc(F)cc(C(F)(F)F)c1)c1nc(-c2ccc(Cl)cc2)cs1 [Compound 75, 4-(4-Chloro-phenyl)-thiazole-2-carboxylic acid 3-fluoro-5-trifluoromethyl-benzylamide] | 3
5 | O=C(NCCc1ccc2c(c1)OCO2)c1nc(-c2ccc(Cl)cc2)cs1 [Compound 64, 4-(4-Chloro-phenyl)-thiazole-2-carboxylic Acid (2-benzo[1,3]dioxol-5-yl-ethyl)-amide] | 90
6 | O=C(Cc1ccc2c(c1)OCO2)Nc1nc(-c2ccc(Cl)cc2)cs1 [Compound 22, 2-Benzo[1,3]dioxol-5-yl-N-[4-(4-chloro-phenyl)-thiazol-2-yl]-acetamide] | 34
7 | O=C(Nc1cc(F)cc(F)c1)c1nc(-c2ccc(Cl)cc2)cs1 [Compound 50, 4-(4-Chloro-phenyl)-thiazole-2-carboxylic Acid (3,5-difluoro-phenyl)-amide] | 21
8 | O=C(Nc1nnn[nH]1)c1nc(-c2ccc(Cl)cc2)cs1 [Compound 62, 4-(4-Chloro-phenyl)-thiazole-2-carboxylic Acid (1H-tetrazol-5-yl)-amide] | 60
9 | CCSCCNC(=O)c1nc(-c2ccc(Cl)cc2)cs1 [Compound 48, 4-(4-Chloro-phenyl)-thiazole-2-carboxylic Acid (2-ethylsulfanyl-ethyl)-amide] | 56
10 | COc1ccc(CCNC(=O)c2nc(-c3ccc(Cl)cc3)cs2)cc1Br [Compound 41, 4-(4-Chloro-phenyl)-thiazole-2-carboxylic acid [2-(3-bromo-4-methoxy-phenyl)-ethyl]-amide] | 22
11 | O=C(Nc1nc(-c2ccc(Cl)cc2)cs1)c1ccc(Cl)cc1Cl [Compound 68, 2,4-Dichloro-N-[4-(4-chloro-phenyl)-thiazol-2-yl]-benzamide] | 73
12 | CSc1ccc(CNC(=O)c2nc(-c3ccc(Cl)cc3)cs2)cc1 [Compound 51, 4-(4-Chloro-phenyl)-thiazole-2-carboxylic Acid 4-methylsulfanyl-benzylamide] | 36
13 | O=C(NCc1ccc(-c2ccccc2)cc1)c1nc(-c2ccc(Cl)cc2)cs1 [Compound 55, 4-(4-Chloro-phenyl)-thiazole-2-carboxylic Acid (biphenyl-4-ylmethyl)-amide] | 20
14 | O=C(C=Cc1ccc2c(c1)OCO2)Nc1nc(-c2ccc(Cl)cc2)cs1 [Compound 21, 3-Benzo[1,3]dioxol-5-yl-N-[4-(4-chloro-phenyl)-thiazol-2-yl]-acrylamide] | 26
15 | O=C(CCc1ccc(F)cc1F)Nc1nc(-c2ccc(Cl)cc2)cs1 [Compound 47, N-[4-(4-Chloro-phenyl)-thiazol-2-yl]-3-(2,4-difluoro-phenyl)-propionamide] | 21

Second part, the molecule after the results:

Row | inhibition at 6 µg/mL [%] | Compound
16 | 45 | COc1ccc(CCC(=O)Nc2nc(-c3ccc(Cl)cc3)cs2)cc1OC [Compound 23, N-[4-(4-Chloro-phenyl)-thiazol-2-yl]-3-(3,4-dimethoxy-phenyl)-propionamide]
17 | 14 | O=C(NCc1cc(F)cc(F)c1)c1nc(-c2ccc(Cl)cc2)cs1 [Compound 36, 4-(4-Chloro-phenyl)-thiazole-2-carboxylic acid 3,5-difluoro-benzylamide]
18 | 58 | CCCC(=O)Oc1ccc(CC(=O)Nc2nc(-c3ccc(Cl)cc3)cs2)cc1N [Compound 31, Butyric acid 2-amino-4-{[4-(4-chloro-phenyl)-thiazol-2-ylcarbamoyl]-methyl}-phenyl ester]
19 | 86 | O=C(NCc1ccc(C(F)(F)F)cc1)c1nc(-c2ccc(Cl)cc2)cs1 [Compound 58, 4-(4-Chloro-phenyl)-thiazole-2-carboxylic Acid 4-trifluoromethyl-benzylamide]
20 | 51 | O=C(NCCN1CCOCC1)c1nc(-c2ccc(Cl)cc2)cs1 [Compound 76, 4-(4-Chloro-phenyl)-thiazole-2-carboxylic acid (2-morpholin-4-yl-ethyl)-amide]
21 | 67 | O=C(NCc1ccc(C(F)(F)F)cc1F)c1nc(-c2ccc(Cl)cc2)cs1 [Compound 49, 4-(4-Chloro-phenyl)-thiazole-2-carboxylic Acid 2-fluoro-4-trifluoromethyl-benzylamide]
22 | 16 | CC(C)(C)NCCCNC(=O)c1nc(-c2ccc(Cl)cc2)cs1 [Compound 57, 4-(4-Chloro-phenyl)-thiazole-2-carboxylic Acid (3-tert-butylamino-propyl)-amide]
23 | 66 | O=C(Nc1nc(-c2ccc(Cl)cc2)cs1)c1cccc(F)c1 [Compound 65, N-[4-(4-Chloro-phenyl)-thiazol-2-yl]-3-fluoro-benzamide]
24 | 46 | O=C(NCCCN1CCCC1)c1nc(-c2ccc(Cl)cc2)cs1 [Compound 59, 4-(4-Chloro-phenyl)-thiazole-2-carboxylic Acid (3-pyrrolidin-1-yl-propyl)-amide]
25 | 69 | O=C(NCCc1cccc(Oc2ccccc2)c1)c1nc(-c2ccc(Cl)cc2)cs1 [Compound 44, 4-(4-Chloro-phenyl)-thiazole-2-carboxylic acid [2-(3-phenoxy-phenyl)-ethyl]-amide]
26 | 6 | CCCC(=O)Oc1ccc(C=CC(=O)Nc2nc(-c3ccc(Br)cc3)cs2)cc1OC [Compound 20, Butyric acid 4-{2-[4-(4-bromo-phenyl)-thiazol-2-ylcarbamoyl]-vinyl}-2-methoxy-phenyl ester]
27 | 75 | O=C(NCc1ccc(F)cc1Cl)c1nc(-c2ccc(Cl)cc2)cs1 [Compound 38, 4-(4-Chloro-phenyl)-thiazole-2-carboxylic acid 2-chloro-4-fluoro-benzylamide]
28 | 70 | Fc1ccc(F)c(OCNc2nc(-c3ccc(Cl)cc3)cs2)c1 [Compound 78, [4-(4-Chloro-phenyl)-thiazol-2-yl]-(2,5-difluoro-phenoxymethyl)-amine]
29 | 69 | O=C(NCc1ccc(F)c(Cl)c1)c1nc(-c2ccc(Cl)cc2)cs1 [Compound 39, 4-(4-Chloro-phenyl)-thiazole-2-carboxylic acid 3-chloro-4-fluoro-benzylamide]
30 | 0 | CCCC(=O)Oc1ccc(C(=O)Nc2nc(-c3ccc(Cl)cc3)cs2)cc1OC(=O)CCC [Compound 25, Butyric acid 2-butyryloxy-4-[4-(4-chloro-phenyl)-thiazol-2-ylcarbamoyl]-phenyl ester]
31 | 85 | Fc1cc(F)cc(OCNc2nc(-c3ccc(Cl)cc3)cs2)c1 [Compound 77, [4-(4-Chloro-phenyl)-thiazol-2-yl]-(3,5-difluoro-phenoxymethyl)-amine]
32 | 42 | CN1CCCC1CCNC(=O)c1nc(-c2ccc(Cl)cc2)cs1 (stereo not shown) [Compound 45, 4-(4-Chloro-phenyl)-thiazole-2-carboxylic acid [2-(1-methyl-pyrrolidin-2-yl)-ethyl]-amide]
33 | 87 | O=C(NCc1cc(C(F)(F)F)cc(C(F)(F)F)c1)c1nc(-c2ccc(Cl)cc2)cs1 [Compound 60, 4-(4-Chloro-phenyl)-thiazole-2-carboxylic Acid 3,5-bis-trifluoromethyl-benzylamide]
34 | 87 | CCCC(=O)Oc1ccc(C=CC(=O)Nc2nc(-c3ccc(F)cc3)cs2)cc1OC [Compound 28, Butyric acid 4-{2-[4-(4-fluoro-phenyl)-thiazol-2-ylcarbamoyl]-vinyl}-2-methoxy-phenyl ester]
35 | 61 | O=C(Nc1nc(-c2ccc(Cl)cc2)cs1)c1ccc(C(F)(F)F)cc1F [Compound 66, N-[4-(4-Chloro-phenyl)-thiazol-2-yl]-2-fluoro-4-trifluoromethyl-benzamide]
36 | 56 | O=C(NCc1ccc(F)c(F)c1)c1nc(-c2ccc(Cl)cc2)cs1 [Compound 40, 4-(4-Chloro-phenyl)-thiazole-2-carboxylic acid 3,4-difluoro-benzylamide]
37 | 80 | CN1CCN(NC(=O)c2nc(-c3ccc(Cl)cc3)cs2)CC1 [Compound 46, 4-(4-Chloro-phenyl)-thiazole-2-carboxylic Acid (4-methyl-piperazin-1-yl)-amide]
